# In patent US11472808B2, “Substituted pyrrolo[1,2-c]pyrimidines as hepatitis B antiviral agents” (Enanta Pharmaceuticals, Inc., priority 2019, dated 2022):
# Test system: HBV
# Assay: HepAD38 anti-HBV assay: reduction of viral product accumulation (virion DNA qPCR, HBsAg/HBeAg ELISA)
# Assay type: cell-based
# Details: Hepatitis B virus, 120 h; HepAD38 cells; concentration reducing viral product accumulation by 50% relative to no drug controls; harvest five days after compound addition; read-out: HepAD38 EC50
# Description: Methods: HepAD38 cells are maintained as previously reported (Ladner et al, Antimicrob. Agents Chemother. 1997, […], 1715). Briefly, cells are passaged upon attaining confluency in DMEM/F12 media in the presence of 10% FBS, Penn/Strep, 250 μg/mL G418, and 1 μg/ml tetracycline. Novel compounds are screened by first washing cells three times with PBS to remove tetracycline, and plating in 96 well plates at 35,000 cells/well. Compounds dissolved in DMSO are then diluted 1:200 into wells containing cells. Five days after compound addition, material is harvested for analysis. For an extended 8 day analysis, cells are plated and treated as described above, but media and compound are refreshed on d2 and d5 post initial treatment.
# On harvest day, virion DNA is obtained by lysing with Sidestep Lysis and Stabilization Buffer and then quantified via quantitative real time PCR. Commercially available ELISA kits are used to quantitate the viral proteins HBsAg (Alpco) or HbeAg (US Biological) by following the manufacturer's recommended protocol after diluting samples to match the linear range of their respective assays. Irrespective of readout, compound concentrations that reduce viral product accumulation in the cell lysates or supernatants by 50% relative to no drug controls (EC50) are reported; EC50 ranges are as follows: A<0.1 μM; B 0.1-0.4 μM; C>0.4 μM.
row,Structure (SMILES),EC50
1,C#CCNC[C@]1(O)CC2=C(c3ccn(C(F)F)n3)[C@H](c3ccc(F)cc3Cl)N=C(c3nccs3)N2C1 [Example 115],> 0.4 µM
2,O=S(=O)(N[C@H]1CC2=C(c3ccn(C(F)F)n3)[C@H](c3ccc(F)cc3Cl)N=C(c3nccs3)N2C1)C1CC(OCc2ccccc2)C1 (stereo partly drawn) [Example 296],< 0.1 µM
3,OC[C@@]1(F)CC2=C(c3ccn(C(F)F)n3)[C@H](c3ccc(F)cc3Cl)N=C(c3nccs3)N2C1 [Example 166],0.1 to 0.4 µM
4,O=S(=O)(NCc1ccccc1)N[C@H]1CC2=C(c3ccn(C(F)F)n3)[C@H](c3ccc(F)cc3Cl)N=C(c3nccs3)N2C1 [Example 305],0.1 to 0.4 µM
5,C=CCNC[C@]1(N)CC2=C(c3ccn(C(F)F)n3)[C@H](c3ccc(F)cc3Cl)N=C(c3nccs3)N2C1 [Example 147],> 0.4 µM
6,CS(=O)(=O)Nc1ccc(NS(=O)(=O)N[C@H]2CC3=C(c4ccn(C(F)F)n4)[C@H](c4ccc(F)cc4Cl)N=C(c4nccs4)N3C2)cc1 [Example 349],< 0.1 µM
7,O=C(O)c1cccc(S(=O)(=O)N[C@H]2CC3=C(c4ccn(C(F)F)n4)[C@H](c4ccc(F)cc4Cl)N=C(c4nccs4)N3C2)c1 [Example 5],< 0.1 µM
8,O=C(O)C1CCN(S(=O)(=O)N[C@H]2CC3=C(c4ccn(C(F)F)n4)[C@H](c4ccc(F)cc4Cl)N=C(c4nccs4)N3C2)CC1 [Example 90],< 0.1 µM
9,O=C(N[C@H]1CC2=C(c3ccn(C(F)F)n3)[C@H](c3ccc(F)cc3Cl)N=C(c3nccs3)N2C1)c1cccc(C2CC2)n1 [Example 248],> 0.4 µM
10,CCOC(=O)CC(NS(=O)(=O)N[C@H]1CC2=C(c3ccn(C(F)F)n3)[C@H](c3ccc(F)cc3Cl)N=C(c3nccs3)N2C1)c1ccccn1 (stereo partly drawn) [Example 355],0.1 to 0.4 µM
11,CS(=O)(=O)CCCS(=O)(=O)N[C@H]1CC2=C(c3ccn(C(F)F)n3)[C@H](c3ccc(F)cc3Cl)N=C(c3nccs3)N2C1 [Example 329],< 0.1 µM
12,CC1CCC(C)N1S(=O)(=O)N[C@H]1CC2=C(c3ccn(C(F)F)n3)[C@H](c3ccc(F)cc3Cl)N=C(c3nccs3)N2C1 (stereo partly drawn) [Example 291],< 0.1 µM
13,CS(=O)(=O)NC[C@@]1(N)CC2=C(c3ccn(C(F)F)n3)[C@H](c3ccc(F)cc3Cl)N=C(c3nccs3)N2C1 [Example 148],> 0.4 µM
14,C#CCN1CCN([C@H]2CC3=C(c4ccn(C(F)F)n4)[C@H](c4ccc(F)cc4Cl)N=C(c4nccs4)N3C2)C1=O [Example 41],0.1 to 0.4 µM
15,O=S(=O)(N[C@H]1CC2=C(c3ccn(C(F)F)n3)[C@H](c3ccc(F)cc3Cl)N=C(c3nccs3)N2C1)C1CCCCC1 [Example 240],< 0.1 µM
16,O=C(O)CS(=O)(=O)N[C@H]1CC2=C(c3ccn(C(F)F)n3)[C@H](c3ccc(F)cc3Cl)N=C(c3nccs3)N2C1 [Example 18],> 0.4 µM
17,O=S(=O)(N[C@H]1CC2=C(c3ccn(C(F)F)n3)[C@H](c3ccc(F)cc3Cl)N=C(c3nccs3)N2C1)N[C@@H](c1ccccn1)C1CC1 [Example 354],0.1 to 0.4 µM
18,C=CCNC[C@@]1(O)CC2=C(c3ccn(C(F)F)n3)[C@H](c3ccc(F)cc3Cl)N=C(c3nccs3)N2C1 [Example 116],> 0.4 µM
19,Cc1cc(F)c(C(=O)O)cc1S(=O)(=O)N[C@H]1CC2=C(c3ccn(C(F)F)n3)[C@H](c3ccc(F)cc3Cl)N=C(c3nccs3)N2C1 [Example 29],> 0.4 µM
20,ONC[C@@]1(O)CC2=C(c3ccn(C(F)F)n3)[C@H](c3ccc(F)cc3Cl)N=C(c3nccs3)N2C1 [Example 122],> 0.4 µM
21,O=C(N[C@H]1CC2=C(c3ccn(C(F)F)n3)[C@H](c3ccc(F)cc3Cl)N=C(c3nccs3)N2C1)N1CCC[C@@H](O)C1 [Example 223],0.1 to 0.4 µM
22,N#CC[C@@]1(F)CC2=C(c3ccn(C(F)F)n3)[C@H](c3ccc(F)cc3Cl)N=C(c3nccs3)N2C1 [Example 194],0.1 to 0.4 µM
23,COC(=O)c1ccc(C)c(S(=O)(=O)N[C@H]2CC3=C(c4ccn(C(F)F)n4)[C@H](c4ccc(F)cc4Cl)N=C(c4nccs4)N3C2)c1 [Example 25],0.1 to 0.4 µM
24,CS(=O)(=O)NC[C@]1(N)CC2=C(c3ccn(C(F)F)n3)[C@H](c3ccc(F)cc3Cl)N=C(c3nccs3)N2C1 [Example 146],> 0.4 µM
25,COC(=O)[C@H]1C[C@@H](S(=O)(=O)N[C@H]2CC3=C(c4ccn(C(F)F)n4)[C@H](c4ccc(F)cc4Cl)N=C(c4nccs4)N3C2)C1 [Example 15],0.1 to 0.4 µM
26,O[C@]1(Cn2cccn2)CC2=C(c3ccn(C(F)F)n3)[C@H](c3ccc(F)cc3Cl)N=C(c3nccs3)N2C1 [Example 120],> 0.4 µM
27,CS(=O)(=O)[C@H]1CC2=C(c3ccn(C(F)F)n3)[C@H](c3ccc(F)cc3Cl)N=C(c3nccs3)N2C1 [Example 134],0.1 to 0.4 µM

row,Structure (SMILES),EC50
1,O=S(=O)(N[C@H]1CC2=C(c3ccn(C(F)F)n3)[C@H](c3ccc(F)cc3Cl)N=C(c3nccs3)N2C1)N1CCC(O)(c2cnc(C3CC3)s2)CC1 [Example 262],< 0.1 µM
2,CC(C)(NS(=O)(=O)N[C@H]1CC2=C(c3ccn(C(F)F)n3)[C@H](c3ccc(F)cc3Cl)N=C(c3nccs3)N2C1)c1ccccn1 [Example 318],< 0.1 µM
3,O=S(=O)(CCCC(O)c1ccccn1)N[C@H]1CC2=C(c3ccn(C(F)F)n3)[C@H](c3ccc(F)cc3Cl)N=C(c3nccs3)N2C1 (stereo partly drawn) [Example 297],0.1 to 0.4 µM
4,O=C(N[C@H]1CC2=C(c3ccn(C(F)F)n3)[C@H](c3ccc(F)cc3Cl)N=C(c3nccs3)N2C1)O[C@H]1CC[C@H](O)CC1 [Example 254],< 0.1 µM
5,O=S(=O)(CCN1CCC(O)CC1)N[C@H]1CC2=C(c3ccn(C(F)F)n3)[C@H](c3ccc(F)cc3Cl)N=C(c3nccs3)N2C1 [Example 57],< 0.1 µM
6,O/N=C/[C@]1(F)CC2=C(c3ccn(C(F)F)n3)[C@H](c3ccc(F)cc3Cl)N=C(c3nccs3)N2C1 [Example 179],> 0.4 µM
7,O=C(N[C@H]1CC2=C(c3ccn(C(F)F)n3)[C@H](c3ccc(F)cc3Cl)N=C(c3nccs3)N2C1)N1CCN(S(=O)(=O)c2ccccc2)CC1 [Example 228],> 0.4 µM
8,COC(=O)N1CCN(S(=O)(=O)N[C@H]2CC3=C(c4ccn(C(F)F)n4)[C@H](c4ccc(F)cc4Cl)N=C(c4nccs4)N3C2)CC1 [Example 152],< 0.1 µM
9,COC(=O)c1cccc(S(=O)(=O)NCC2(F)CC3=C(c4ccn(C(F)F)n4)[C@H](c4ccc(F)cc4Cl)N=C(c4nccs4)N3C2)c1 (stereo partly drawn) [Example 190],> 0.4 µM
10,COC(=O)c1cccc(S(=O)(=O)NC[C@]2(O)CC3=C(c4ccn(C(F)F)n4)[C@H](c4ccc(F)cc4Cl)N=C(c4nccs4)N3C2)c1 [Example 130],0.1 to 0.4 µM
11,O=C(O)[C@H]1C[C@@H](S(=O)(=O)N[C@H]2CC3=C(c4ccn(C(F)F)n4)[C@H](c4ccc(F)cc4Cl)N=C(c4nccs4)N3C2)C1 [Example 17],0.1 to 0.4 µM
12,O=C(O)CC1CCN(C(=O)CC2CCN(CCS(=O)(=O)N[C@H]3CC4=C(c5ccn(C(F)F)n5)[C@H](c5ccc(F)cc5Cl)N=C(c5nccs5)N4C3)CC2)CC1 [Example 64],> 0.4 µM
13,CONC[C@@]1(O)CC2=C(c3ccn(C(F)F)n3)[C@H](c3ccc(F)cc3Cl)N=C(c3nccs3)N2C1 [Example 126],> 0.4 µM
14,O=S(=O)(N[C@H]1CC2=C(c3ccn(C(F)F)n3)[C@H](c3ccc(F)cc3Cl)N=C(c3nccs3)N2C1)[C@H]1C[C@@H]1c1ccccn1 [Example 390],0.1 to 0.4 µM
15,CNCCS(=O)(=O)N[C@H]1CC2=C(c3ccn(C(F)F)n3)[C@H](c3ccc(F)cc3Cl)N=C(c3nccs3)N2C1 [Example 52],< 0.1 µM
16,COC(=O)N1CCN(C(=O)N[C@H]2CC3=C(c4ccn(C(F)F)n4)[C@H](c4ccc(F)cc4Cl)N=C(c4nccs4)N3C2)CC1 [Example 221],0.1 to 0.4 µM
17,COC(=O)C1CCN(C(=O)N[C@H]2CC3=C(c4ccn(C(F)F)n4)[C@H](c4ccc(F)cc4Cl)N=C(c4nccs4)N3C2)CC1 [Example 211],0.1 to 0.4 µM
18,CCOC(=O)N[C@H]1CC2=C(c3ccn(C(F)F)n3)[C@H](c3ccc(F)cc3Cl)N=C(c3nccs3)N2C1 [Example 201],< 0.1 µM
19,O=S(=O)(Nc1ccccn1)N[C@H]1CC2=C(c3ccn(C(F)F)n3)[C@H](c3ccc(F)cc3Cl)N=C(c3nccs3)N2C1 [Example 320],0.1 to 0.4 µM
20,CS(=O)(=O)CC(NS(=O)(=O)N[C@H]1CC2=C(c3ccn(C(F)F)n3)[C@H](c3ccc(F)cc3Cl)N=C(c3nccs3)N2C1)c1ccccn1 (stereo partly drawn) [Example 345],< 0.1 µM
21,O=S(=O)(C[C@]1(F)CC2=C(c3ccn(C(F)F)n3)[C@H](c3ccc(F)cc3Cl)N=C(c3nccs3)N2C1)c1ccccc1 [Example 195],< 0.1 µM
22,CCNS(=O)(=O)N[C@H]1CC2=C(c3ccn(C(F)F)n3)[C@H](c3ccc(F)cc3Cl)N=C(c3nccs3)N2C1 [Example 76],< 0.1 µM
23,COC(=O)CCCS(=O)(=O)N[C@H]1CC2=C(c3ccn(C(F)F)n3)[C@H](c3ccc(F)cc3Cl)N=C(c3nccs3)N2C1 [Example 9],< 0.1 µM
24,OC1(Cc2nnn[nH]2)CC2=C(c3ccn(C(F)F)n3)[C@H](c3ccc(F)cc3Cl)N=C(c3nccs3)N2C1 (stereo partly drawn) [Example 141],> 0.4 µM
25,C[C@@H]1CN(S(=O)(=O)N[C@H]2CC3=C(c4ccn(C(F)F)n4)[C@H](c4ccc(F)cc4Cl)N=C(c4nccs4)N3C2)C[C@@H]1C [Example 299],< 0.1 µM
26,C=CCNC[C@@]1(N)CC2=C(c3ccn(C(F)F)n3)[C@H](c3ccc(F)cc3Cl)N=C(c3nccs3)N2C1 [Example 149],> 0.4 µM
27,O=C(N[C@H]1CC2=C(c3ccn(C(F)F)n3)[C@H](c3ccc(F)cc3Cl)N=C(c3nccs3)N2C1)C1CCCCC1 [Example 239],0.1 to 0.4 µM
